SMILES strings stand for the structures. Active and inactive are the calls of the source. The rule behind the calls is not given here. Some results are limits rather than exact numbers.

What is called inhibition is the drop in the measured response relative to a control, in per cent.

In assay [1] the test system is HepG2. The experiment in a line: Antioxidant activity in human HepG2 cells assessed as decrease in fluorescence level after 2.5 hrs measured every 5 mins for 1 hr by DCFH-DA staining based fluorescence assay. It is filed as functional, cell-based.
Assay [2] relates to HepG2. The assay is described as follows: Antioxidant activity in human HepG2 cells assessed as decrease in fluorescence level by measuring ratio of micromol of quercetin to 100 umol of compound after 2.5 hrs measured every 5 mins for 1 hr by DCFH-DA staining based fluorescence assay. It is filed as functional. More on the design: scale not given: the % may be the effect or the level left.

Assay [3] concerns the target Superoxide dismutase [Cu-Zn] (Homo sapiens) (UniProt P00441). The assay is described as follows: Induction of superoxide dismutase activity in human erythrocytes at 100 ug/ml preincubated followed by AAPH addition measured after 2 hrs. It is filed as cell-based.
Assay [4] deals with MCF7. The assay is described as follows: Induction of apoptosis in human MCF7 cells assessed as cell shrinkage at 500 ug/ml after 24 hrs by scanning electron microscopic analysis. It is filed as functional, cell-based.
The subject of assay [5] is HepG2. The assay is described as follows: Antioxidant activity in human HepG2 cells assessed as decrease in AAPH-induced ROS level at 100 ug/ml preincubated for 2 hrs followed by AAPH addition by DCFH-DA staining based microplate fluorometric analysis relative to control. It is filed as functional. More on the design: scale not given: the % may be the effect or the level left.

A short description of assay [6]: Antiproliferative activity against human SGC7901 cells assessed as cell survival at 100 ug/ml after 48 hrs by MTT assay relative to control. It is filed as functional. The settings on record: SGC-7901, 48 h, read-out: Survival. (Formazan colour is commonly taken as a measure of viable cells.)
Assay [7] deals with MCF7. The experiment in a line: Induction of apoptosis in human MCF7 cells assessed as cytoplasm overflow at 500 ug/ml after 24 hrs by scanning electron microscopic analysis. It is filed as functional, cell-based.
Assay [8] relates to MCF7. The assay is described as follows: Induction of apoptosis in human MCF7 cells assessed as morphological changes at 500 ug/ml by scanning electron microscopic analysis. It is filed as functional, cell-based. Conditions: TDE = time-dependent effect.
Assay [9] deals with MCF7. The experiment in a line: Antiproliferative activity against human MCF7 cells assessed as cell survival at 100 ug/ml after 48 hrs by MTT assay relative to control. It is filed as functional. Conditions: MCF7, 48 h, read-out: Survival.
For assay [10], the system named is MCF7. The assay is described as follows: Induction of apoptosis in human MCF7 cells assessed as chromatin condensation at 500 ug/ml after 12 hrs by scanning electron microscopic analysis. It is filed as functional, cell-based.
In assay [11] the test system is MCF7. The experiment in a line: Induction of apoptosis in human MCF7 cells assessed as apoptotic bodies at 500 ug/ml after 48 hrs by scanning electron microscopic analysis. It is filed as functional, cell-based.
In assay [12] the test system is MCF7. The assay is described as follows: Induction of apoptosis in human MCF7 cells assessed as plasma membrane blebbing at 500 ug/ml after 48 hrs by scanning electron microscopic analysis. It is filed as functional, cell-based.
The test system of assay [13] is A549. The assay is described as follows: Antiproliferative activity against human A549 cells assessed as cell survival at 100 ug/ml after 48 hrs by MTT assay relative to control. It is filed as functional. The settings on record: A549, 48 h, read-out: Survival.
In assay [14] the test system is Erythrocyte. The assay is described as follows: Cytoprotective activity in human erythrocytes assessed as inhibition of AAPH-induced oxidative hemolysis preincubated for 30 mins followed by AAPH induction measured after 2 hrs by spectrophotometric analysis. It is filed as functional, cell-based.
Assay [15] concerns MCF7. The assay is described as follows: Induction of apoptosis in human MCF7 cells assessed as morphological deformity at 500 ug/ml after 48 hrs by scanning electron microscopic analysis. It is filed as functional, cell-based.
Assay [16] relates to Erythrocyte. The assay is described as follows: Cytoprotective activity in human erythrocytes assessed as inhibition of AAPH-induced oxidative hemolysis at 100 ug/ml preincubated for 30 mins followed by AAPH induction measured after 2 hrs by spectrophotometric analysis relative to control. It is filed as functional.
The test system of assay [17] is MCF7. The experiment in a line: Induction of apoptosis in human MCF7 cells assessed as nuclear morphological deformity at 500 ug/ml after 12 hrs by scanning electron microscopic analysis. It is filed as functional, cell-based.
Assay [18] relates to MCF7. The experiment in a line: Induction of apoptosis in human MCF7 cells assessed as mitochondrial membrane potential loss at 100 ug/ml after 48 hrs by JC-1 staining based fluorescence microscopic analysis. It is filed as functional, cell-based.
Another assay is filed under the species Homo sapiens. The assay is described as follows: Induction of glutathione peroxidase activity in human erythrocytes at 100 ug/ml preincubated followed by AAPH addition measured after 2 hrs. It is filed as cell-based.
The subject of assay [19] is MCF7. The experiment in a line: Antiproliferative activity against human MCF7 cells assessed as reduction in cell survival after 48 hrs by MTT assay. It is filed as functional, cell-based.
Assay [20] relates to HeLa. The assay is described as follows: Antiproliferative activity against human HeLa cells assessed as cell survival at 100 ug/ml after 48 hrs by MTT assay relative to control. It is filed as functional. The settings on record: read-out: Survival.
The subject of assay [21] is Erythrocyte. The assay is described as follows: Inhibition of AAPH-induced oxidative hemolysis in human erythrocytes assessed as smooth and round surface at 100 ug/ml preincubated for 20 mins followed by AAPH addition measured after 2 hrs by scanning electron microscopic analysis. It is filed as functional, cell-based.
Assay [22] deals with HeLa. The experiment in a line: Antiproliferative activity against human HeLa cells assessed as reduction in cell survival after 48 hrs by MTT assay. It is filed as functional, cell-based.
The subject of assay [23] is MCF7. The assay is described as follows: Induction of apoptosis in human MCF7 cells assessed as chromatin hypercondensation at 25 to 100 ug/ml after 48 hrs by Hoechst 33258 staining based fluorescence microscopic analysis. It is filed as functional, cell-based.
The next assay addresses T1, Catalase (Homo sapiens) (UniProt P04040).
T1 sequence (whole entry): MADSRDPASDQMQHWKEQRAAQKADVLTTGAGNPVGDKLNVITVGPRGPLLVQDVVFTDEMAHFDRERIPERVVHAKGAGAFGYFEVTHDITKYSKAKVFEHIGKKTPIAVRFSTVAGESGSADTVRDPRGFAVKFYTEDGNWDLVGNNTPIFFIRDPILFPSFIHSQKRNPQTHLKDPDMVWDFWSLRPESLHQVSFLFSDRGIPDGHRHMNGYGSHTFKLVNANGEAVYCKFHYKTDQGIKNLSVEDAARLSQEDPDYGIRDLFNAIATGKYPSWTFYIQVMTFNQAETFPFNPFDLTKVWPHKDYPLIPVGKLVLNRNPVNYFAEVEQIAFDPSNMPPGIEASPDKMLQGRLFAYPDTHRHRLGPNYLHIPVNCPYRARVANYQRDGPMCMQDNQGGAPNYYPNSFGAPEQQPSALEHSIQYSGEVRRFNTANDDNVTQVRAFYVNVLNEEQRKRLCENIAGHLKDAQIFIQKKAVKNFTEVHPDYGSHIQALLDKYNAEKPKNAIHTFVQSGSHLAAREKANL
The experiment in a line: Reduction of catalase activity in human erythrocytes at 100 ug/ml preincubated followed by AAPH addition measured after 2 hrs. It is filed as cell-based. Set-up: scale not given: the % may be the effect or the level left.

Assay [24] has as its system Erythrocyte. The assay is described as follows: Inhibition of lipid peroxidation in human erythrocytes assessed as reduction in AAPH-induced malondialdehyde formation at 100 ug/ml preincubated for 20 mins followed by AAPH addition measured after 2 hrs by […] relative to untreated control. It is filed as functional.
The subject of assay [25] is A549. The experiment in a line: Antiproliferative activity against human A549 cells assessed as reduction in cell survival after 48 hrs by MTT assay. It is filed as functional, cell-based.
The next assay has as its system SGC-7901. The assay is described as follows: Antiproliferative activity against human SGC7901 cells assessed as reduction in cell survival after 48 hrs by MTT assay. It is filed as functional, cell-based.

Chain of Superoxide dismutase [Cu-Zn] (Homo sapiens) (P00441 whole entry): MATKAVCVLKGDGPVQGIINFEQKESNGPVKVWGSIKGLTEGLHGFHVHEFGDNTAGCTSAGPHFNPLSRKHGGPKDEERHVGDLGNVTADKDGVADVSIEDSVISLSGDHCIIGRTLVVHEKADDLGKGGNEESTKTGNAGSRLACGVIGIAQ

With `COc1ccc(-c2cc(=O)c3c(O)cc(O)cc3o2)cc1O` [DIOSMETIN], in the assay with HepG2 [1], the EC50 is 7.98 µmol. Moreover, the Activity with HepG2 [2] is recorded as 58%.
As to `O=C(O[C@@H]1Cc2c(O)cc(O)cc2O[C@@H]1c1cc(O)c(O)c(O)c1)c1cc(O)c(O)c(O)c1` [EPIGALOCATECHIN GALLATE], the Activity in the assay on HepG2 [2] was 33.1%.
As to `O=c1c(O)c(-c2ccc(O)cc2)oc2cc(O)cc(O)c12` [KAEMPFEROL], the outcome (in assay [3]; in the assay listed under Homo sapiens) was inactive. In addition, the outcome in the assay with MCF7 [4], in the assay on MCF7 [7], in the assay on MCF7 [10], with MCF7 [11], with MCF7 [12] and in the assay with MCF7 [15] was Active. Besides, the result in the assay on MCF7 [17], with MCF7 [18] and in the assay on MCF7 [23] was Active. The Activity was 88.25% in the assay on HepG2 [5]; “Dose-dependent effect” in the assay with HepG2 [1]; “tde” in the assay with MCF7 [8]; 59.8% in the assay on HepG2 [2]; “Dose-dependent effect” in the assay on MCF7 [19]; “Dose-dependent effect” with HeLa [22]. Also, the figures for the Activity on Catalase (Homo sapiens), in the assay with A549 [25] and with SGC-7901 were < 95.5%, “Dose-dependent effect” and “Dose-dependent effect”, respectively. Besides, in the assay on HepG2 [1], the EC50 was found to be 7.74 µmol. The viability at 100 µg/mL in [6] amounted to 59.2%; in the assay on MCF7 [9], 47.9%; with A549 [13], 60.2%; in the assay with HeLa [20], 57.5%. For the same compound, the inhibition result with Erythrocyte [14] is “Dose-dependent effect”. The results for the inhibition at 100 µg/mL with Erythrocyte [16] and with Erythrocyte [24] were 87.4% and 36.5%, respectively. In the assay on Erythrocyte [21], the inhibition entry was “Active”.
Consider `O=c1cc(-c2ccc(O)c(O)c2)oc2cc(O)cc(O)c12` [LUTEOLIN], for which the Activity in the assay on HepG2 [2] was 32.3%.
On the same count and under the same terms, in the case of `O=c1c(O)c(-c2cc(O)c(O)c(O)c2)oc2cc(O)cc(O)c12` [MYRICETIN] it was 36.8%.
In the case of `O=c1c(O)c(-c2ccc(O)c(O)c2)oc2cc(O)cc(O)c12` [QUERCETIN], the EC50 with HepG2 [1] turned out to be 4.63 µmol.
